How the values were obtained:
[1] = in vivo; cited from earlier work
influenza viruses = conditions: determined by the present inventor
common cold germs = conditions: cited from earlier work
rhinovirus = conditions: cited from earlier work
common colds = conditions: 37 zinc-treated subjects; cited from earlier work
rhinoviruses = conditions: cited from earlier work

CCCc1cc(=O)oc2c3c(c4c(c12)OC(C)(C)C=C4)O[C@H](C)[C@@H](C)[C@@H]3O [Calanolide A]
safety and tolerability [1]: safe and well tolerated

CCO [Ethanol, ethanol]
ability to kill influenza viruses (influenza viruses): ineffective | killing of common cold germs in oral mucosa (common cold germs): known to kill | activity against rhinovirus (rhinovirus): works well

zinc
subjects asymptomatic after seven days (common colds): 86% | inhibition of replication of rhinoviruses (rhinoviruses): inhibit the replication

Source: patent publication US20250248933A1, “Prophylactic and Therapeutic Agents for Upper Respiratory Tract Infections Caused by Influenza and Other Enveloped Viruses” (priority 2020, published 2025)
